Laboratory results from PMC9930359, “Cytotoxicity of the methanol extracts and compounds of Brucea antidysenterica (Simaroubaceae) towards multifactorial drug-resistant human cancer cell lines” (BMC Complementary Medicine and Therapies, 2023).
In brackets after ≈: the same amount, converted by molar mass. One block for each compound: values may come before it.

Experiments:
HepG2 cells = experiment: Resazurin reduction assay (RRA), cytotoxicity; format: cell-based; details: Homo sapiens, HepG2, 72 h
From the text: (§3) In this work, 9 cancer cell lines with various drug resistance patterns as well as AML12 hepatocytes as normal control cell line were used. […] The AML12 hepatocytes were used for the comparison of the activities of the samples with HepG2 [40]. […] The RPMI-1640 medium was used for the culture of CCRF-CEM and CEM/ADR5000 cells whilst DMEM medium was used for carcinoma cells. The culture media were supplemented (complete medium) with 10% fetal bovine serum and 1% penicillin/streptomycin (Invitrogen, Eggenstein, Germany). […] To maintain the resistance phenotype of the resistant carcinoma cell lines such as MDA-MB-231/BCRP and HCT116 p53^−/−, and U87MG.ΔEGFR cells, the complete DMEM medium containing geneticin at 800 ng/ml and 400 µg/ml, respectively were used [41, 42].
(§4) Cells were cultured in a standard condition consisted of a humidified 5% CO2 atmosphere and an incubation temperature of 37 °C. The tested concentration ranges were 0.63—80 µg/mL for the botanicals and 0.78—100 µM for phytochemicals. The incubation time of the treated cells was 72 h, and the fluorescence was measured with Infinite M2000 Pro™ plate reader (Tecan, Crailsheim, Germany). The wavelengths used were 544 nm for the excitation and 590 nm for the emission. […] The degree of resistance (D.R.) was set as the ratio of the IC50 values of samples in the resistant cell line vs that of corresponding sensitive cell line. The selectivity index (S.I.) was the ratio of the IC50 value of AML12 hepatocytes vs. that of HepG2 cells [13, 48].

CEM/ADR5000 cells = experiment: Resazurin reduction assay (RRA), cytotoxicity; format: cell-based, human; details: for IC50: Homo sapiens, CEM/ADR5000, 72 h; for Degree of resistance (D.R.): ratio of IC50 CEM/ADR5000 vs CCRF-CEM
Procedure: (§5) The RPMI-1640 medium was used for the culture of CCRF-CEM and CEM/ADR5000 cells whilst DMEM medium was used for carcinoma cells. The culture media were supplemented (complete medium) with 10% fetal bovine serum and 1% penicillin/streptomycin (Invitrogen, Eggenstein, Germany). […] To maintain the resistance phenotype of the resistant carcinoma cell lines such as MDA-MB-231/BCRP and HCT116 p53^−/−, and U87MG.ΔEGFR cells, the complete DMEM medium containing geneticin at 800 ng/ml and 400 µg/ml, respectively were used [41, 42].
as §4

MDA-MB-231-pcDNA cells = experiment: Resazurin reduction assay (RRA), cytotoxicity; format: cell-based; details: Homo sapiens, 72 h
From the text: as §3, §4

CCRF-CEM cells [1] = experiment: Reactive oxygen species (ROS), H2DCFH-DA staining, flow cytometry; format: cell-based, human
Procedure: (§1) The modification of the MMP as well as the ROS levels after the application of BAL, and flavonolignan 2 at ¼ IC50, ½ IC50, IC50, and 2 × IC50 to CCRF-CEM cells (1 × 10^6) was performed by flow cytometry. DMSO was used as solvent control while valinomycin served as a positive control. The cells were incubated for 24 h and further stained for 30 min with JC-1 [45] and measured (1 × 10^4 cells) in an LSR-Fortessa FACS analyzer (Becton–Dickinson). For ROS determination, CCEF-CEM cells were similarly treated BAL, the flavonolignan 2, hydrogen peroxide (H2O2; positive control), DMSO (solvent control) as in the MMP analysis, then incubated for 24 h. They were further stained with H2DCFH-DA and measured (1 × 10^4 cells) in an LSR-Fortessa FACS analyzer.

Tmolt3 leukemia cells = test system: Tmolt3 leukemia cells; set-up: method as in PMID 1800632; details: Tmolt3 ref 60; cited from earlier work
HCT116 p53+/+ cells = experiment: Resazurin reduction assay (RRA), cytotoxicity; format: cell-based; details: Homo sapiens, HCT-116, 72 h
From the text: as §3, §4

MDA-MB-231-BCRP cells = experiment: Resazurin reduction assay (RRA), cytotoxicity; details: for IC50: Homo sapiens, MDA-MB-231/BCRP, 72 h
Procedure: as §5, §4

HeLa-S3 uterine cells = test system: HeLa-S3 uterine cells; set-up: method as in PMID 1800632; details: HeLa-S3 ref 60; cited from earlier work
AML12 hepatocytes = experiment: Resazurin reduction assay (RRA), cytotoxicity on normal hepatocytes; format: cell-based; details: for IC50: Mus musculus, AML12 normal hepatocytes, 72 h
Procedure: as §5, §4

[2] = test system: S-480 colon adenocarcinoma; set-up: method as in PMID 1800632; details: S-480 ref 60; cited from earlier work
CCRF-CEM cells [3] = experiment: Apoptosis by annexin V/PI staining and flow cytometry; format: cell-based, human; details: 2 x IC50, 24 h
From the text: Afterward, apoptosis detection was undertaken with a fluorescein isothiocynate (FITC)-conjugated annexin V/PI assay kit (eBioscience™ Annexin V; Invitogen, San Diego, USA). The measurement was done using BD Accury C6 Flow Cytometer (BD Biosciences) under experimental conditions previously reported. The assays were done thrice independently with three repetitions each.

[4] = test system: 697 pre-B acute lymphoblastic leukemia cell line; set-up: method as in PMID 23280566; details: 697 pre-B ALL ref 59; cited from earlier work
CCRF-CEM cells [5] = experiment: Mitochondrial membrane potential (MMP), JC-1 staining, flow cytometry; format: cell-based, human; details: 2 × IC50, 24 h
Procedure: as §1

SW480 colon cancer cells = test system: SW480 colon cancer cells; set-up: method as in PMID 24018191; details: SW480 ref 61; cited from earlier work
[6] = test system: KB nasopharynx cancer cells; set-up: method as in PMID 1800632; details: KB ref 60; cited from earlier work
U87MG.ΔEGFR cells = experiment: Resazurin reduction assay (RRA), cytotoxicity; format: cell-based, human; details: for IC50: Homo sapiens, U87MG.ΔEGFR, 72 h
Procedure: as §5, §4

L-1210 leukemia cells = test system: L-1210 leukemia cells; set-up: method as in PMID 1800632; details: murine L-1210 ref 60; cited from earlier work
CCRF-CEM leukemia cells = experiment: Resazurin reduction assay (RRA), cytotoxicity; format: cell-based; details: Homo sapiens, 72 h
From the text: as §3, §4

HCT116 p53−/− cells = experiment: Resazurin reduction assay (RRA), cytotoxicity; format: cell-based, human; details: for IC50: Homo sapiens, HCT-116, HCT116 p53−/−, 72 h
Procedure: as §5, §4

[7] = test system: caspase 8 in CCRF-CEM cells; experiment: Caspase-Glo assay; format: cell-based, human; details: 2 × IC50, 6 h
Procedure: (§2) The activity of caspases in CCRF-CEM cells treated with BAL and the flavonolignan 2 was determined by Caspase-Glo assay. […] The whole was then incubated for 6 h (standard culture conditions) and the activity of caspases was detected by spectrophotometry as previously described.

[8] = test system: caspase 9 in CCRF-CEM cells; experiment: Caspase-Glo assay; format: cell-based, human; details: 2 × IC50, 6 h
Procedure: as §2

U87MG cells = experiment: Resazurin reduction assay (RRA), cytotoxicity; format: cell-based; details: Homo sapiens, U-87 MG, 72 h
From the text: as §3, §4

CCRF-CEM cells [9] = experiment: Cell cycle distribution by flow cytometry (PI staining); format: cell-based, human
Procedure: The modification of the cell cycle distribution of CCRF-CEM induced by the botanicals BAL, the flavonolignan 2, the control drug, doxorubicin, or the solvent control DMSO was determined by flow cytometry under the previously reported work conditions. BAL and compound 2 were applied to CCRF-CEM cells (1 ml; 1 × 10^6 cells) at their ¼ IC50, ½ IC50, IC50, and 2 × IC50 values. The whole was then incubated for 24 h as earlier indicated followed by the analysis of the cell cycle distribution with a BD Accury C6 Flow Cytometer (BD Biosciences, Heidelberg, Germany). Assays were performed three times in triplicates.

[10] = test system: TE-418 osteosarcoma cells; set-up: method as in PMID 1800632; details: TE-418 ref 60; cited from earlier work
[11] = test system: MB-9812 lung cancer cells; set-up: method as in PMID 1800632; details: MB-9812 ref 60; cited from earlier work
nine cancer cell lines = experiment: RRA cytotoxicity, summary over the panel; format: cell-based, human; details: number out of 9 cancer cell lines
From the text: as §3
Cells were cultured in a standard condition consisted of a humidified 5% CO2 atmosphere and an incubation temperature of 37 °C. The tested concentration ranges were 0.63—80 µg/mL for the botanicals and 0.78—100 µM for phytochemicals. The incubation time of the treated cells was 72 h, and the fluorescence was measured with Infinite M2000 Pro™ plate reader (Tecan, Crailsheim, Germany). The wavelengths used were 544 nm for the excitation and 590 nm for the emission. […] The degree of resistance (D.R.) was set as the ratio of the IC50 values of samples in the resistant cell line vs that of corresponding sensitive cell line. […]

[12] = test system: A-549 lung carcinoma cells, MCF-7 breast cancer cells, and PC-3 prostate cancer cells; details: three reported cancer cell lines ref Makong et al. [30]; cited from earlier work
PC-3 = test system: PC-3; set-up: method as in PMID 31816856; details: on PC-3 ref 30; cited from earlier work

Compound: COc1cc([C@H]2Oc3cc(-c4cc(=O)c5c(O)cc(O)cc5o4)ccc3O[C@@H]2CO)ccc1O [Compound 2, hydnocarpin]
IC50 (HepG2 cells): 2.73 ± 0.19 µM
IC50 (CEM/ADR5000 cells): 3.07 ± 0.18 µM
Degree of resistance (D.R.) (CEM/ADR5000 cells): 0.72
IC50 (MDA-MB-231-pcDNA cells): 4.07 ± 0.37 µM
ROS levels in treated cells (CCRF-CEM cells [1]; 1/4 × IC50, 24 h): 6.00%
ROS levels in treated cells (CCRF-CEM cells [1]; 2 × IC50, 24 h): 49.00%
IC50 (Tmolt3 leukemia cells): 32.94 µg/mL (≈ 70.9 µM)
IC50 (HCT116 p53+/+ cells): 11.4 ± 0.98 µM
IC50 (MDA-MB-231-BCRP cells): 6.65 ± 0.24 µM
Degree of resistance (D.R.) (MDA-MB-231-BCRP cells; ratio of IC50 MDA-MB-231-BCRP vs MDA-MB-231-pcDNA): 1.63
IC50 (HeLa-S3 uterine cells): 2.02 µg/mL (≈ 4.35 µM)
IC50 (AML12 hepatocytes): 51.2 ± 3.2 µM
IC50 [2]: 2.00 µg/mL (≈ 4.31 µM)
melting point: 261 to 263 °C
Q2-LR: early apoptotic cells annexin (+)/PI (-) (CCRF-CEM cells [3]): 9.4 ± 0.8%
Q2-UR: annexin V (+)/PI (+) late apoptotic or necrotic cells (CCRF-CEM cells [3]): 18.5 ± 1.3%
IC50 [4]: 8.7 µM
Q1: cells with undamaged (intact) MMP (CCRF-CEM cells [5]): 10.4%
Q2: cells with MMP loss (CCRF-CEM cells [5]): 70.5%
cells with disrupted MMP (Q3 and Q4) (CCRF-CEM cells [5]): 19.1%
IC50 (SW480 colon cancer cells): 20.3 µM
IC50 [6]: 1.15 µg/mL (≈ 2.48 µM)
IC50 (U87MG.ΔEGFR cells): 5.42 ± 0.44 µM
Degree of resistance (D.R.) (U87MG.ΔEGFR cells; ratio of IC50 U87.MGΔEGFR vs U87.MG): 0.58
IC50 (L-1210 leukemia cells): 3.65 µg/mL (≈ 7.86 µM)
IC50 (CCRF-CEM leukemia cells): 4.28 ± 0.31 µM
IC50 (HCT116 p53−/− cells): 6.74 ± 0.33 µM
Degree of resistance (D.R.) (HCT116 p53−/− cells; ratio of IC50 HCT116 p53−/− vs HCT116 p53+/+): 0.59
increase of activity of caspase 8 [7]: 2.12 fold
increase of activity of caspase 9 [8]: 2.67 fold
IC50 (U87MG cells): 9.29 ± 0.73 µM
cells in sub-G0/G1 phase (CCRF-CEM cells [9]; 1/4 × IC50, 24 h): 3.41 ± 0.2%
cells in sub-G0/G1 phase (CCRF-CEM cells [9]; 2 × IC50, 24 h): 38.40 ± 2.6%
IC50 [10]: 2.14 µg/mL (≈ 4.61 µM)
IC50 [11]: 8.18 µg/mL (≈ 17.6 µM)
cancer cell lines with IC50 ≤ 10 μM (nine cancer cell lines): 8/9

melting point: 254 to 256 °C
Compound: COc1cc([C@H]2Oc3c(OC)cc4ccc(=O)oc4c3O[C@@H]2CO)cc(OC)c1O [Compound 6, cleomiscosin C]
IC50 (HepG2 cells): 15.5 ± 1.06 µM
IC50 (CEM/ADR5000 cells): > 100 µM
Degree of resistance (D.R.) (CEM/ADR5000 cells): > 4.31
IC50 (MDA-MB-231-pcDNA cells): > 100 µM
IC50 (HCT116 p53+/+ cells): > 100 µM
IC50 (MDA-MB-231-BCRP cells): > 100 µM
IC50 (AML12 hepatocytes): > 100 µM
Selectivity index (S.I.) (AML12 hepatocytes; ratio of IC50 in AML12 vs IC50 in HepG2 cells): > 6.46
IC50 (U87MG.ΔEGFR cells): > 100 µM
IC50 (CCRF-CEM leukemia cells): 23.2 ± 1.63 µM
IC50 (HCT116 p53−/− cells): > 100 µM
IC50 (U87MG cells): > 100 µM
cytotoxic activity [12]: not active

Compound: bruceacanthinones A
IC50 (PC-3): 196 µM
